US10111880B2, “Compounds for the treatment of diabetes and disease complications arising from same” (BEN-GURION UNIVERSITY OF THE NEGEV RESEARCH AND DEVELOPMENT …, priority 2013, dated 2018)
Entries after “also recorded” stand apart in the source; their conditions may differ.

Key:
[1] = tested on: STZ-induced diabetic ICR mice; assay: Glucose Tolerance Test (GTT) in STZ diabetic mice after 2 and 5 months; format: in vivo, mouse; details: for Improvement (fold): GTT after 2 months; for Fold of Improvement: GTT after 5 months; for Time needed for the Pancreas to cope glucose load after 5 months / Time needed for the Pancreas to cope with glucose load after 2 months: GTT
Description: Glucose Tolerance Test: Animals were fasted for 12 hr with free access to water. Blood-glucose levels after fast were measured and then the animals received an i.p. injection of glucose (1.5 g/kg). Blood samples were taken at several intervals (for the duration of 2 hr), when glucose levels above 200 mg/dl at 2 hr confirmed a diagnosis of diabetes.
[…] Mice were subjected to 12 hours fast (with water) weighed, blood glucose level was measured and Glucose at 1.5 gr/kg in no more than 100 μl was injected IP. Blood glucose levels were measured at 10, 20, 30, 60, 90 and 120 min after glucose injection. glucose tolerance test.

[2] = tested on: islets isolated from ICR mice; assay: γ-H2AX staining in isolated islet cells treated with STZ; format: cell-based, mouse; details: STZ 1.5 mM; AGS-500 50 nM, 100 nM, 250 nM; 4 hours
Description: Islets were isolated from 8-10-week-old ICR mice. 30 islets in each group were treated with STZ (1.5 mM) and DMSO or AGS-500 in various concentrations (50 nM, 100 nM, 250 nM) for 4 hours. After 4 h incubation, the islets were enzymatically separated to single cells, cyto-spun and stained with γ-H2AX-specific antibody (A; representative picture—γ-H2AX (light grey), Dapi (dark grey)). Magnification: ×60.
The treatment of rats with AGS-compounds maintained a large β-cell mass in STZ-treated rats. In order to determine whether β-cell mass preservation was a result islet cell protection from STZ-induced DNA damage, γ-H2AX staining was assessed. Phosphorylated gamma H2AX (γ-H2AX) is essential for recognition and repair of DNA double strand breaks. H2AX histone becomes rapidly phosphorylated at its carboxyl terminus to form the so-called γ-H2AX at double strand break sites.
Islets were isolated from 8-10-week-old ICR mice and were treated with STZ (1.5 mM) and DMSO or AGS-500 in various concentrations (50 nM, 100 nM, 250 nM) for 4 hours. After a 4 h incubation, the islets were separated into single cells, cyto-spun, and stained with anti-γ-H2AX-specific antibody for the detection of DNA double strand breaks (FIG. 6).

[3] = tested on: insulin expressing beta islets; assay: Immunofluorescence of pancreatic slices with anti-insulin antibody, insulin expressing beta islets in mice; format: in vivo, mouse
Description: The light grey (originally red) stains insulin producing cells, and the darker grey (originally blue) is for DAPI staining. Density of insulin staining per area was measured using “Image J” software (D-E). The results are mean±S.E.; n=4. ***p<0.005. Magnification: ×10.

[4] = tested on: STZ-induced diabetic ICR mice; assay: Glucose tolerance test in STZ mice after short course (2 weeks) AGS treatment; format: in vivo, mouse
Description: (§1) Eight weeks-old female ICR mice were injected intraperitoneally (IP) with Streptozotocin (STZ), at a dose of 40 mg/Kg, for 5 consecutive days. The following day and onward, mice were administered the AGS compounds (499 or 500, as indicated), at a dose of 6 mg/Kg, either subcutaneously or orally, every other day. Blood glucose levels were monitored daily.
(§2) After the establishment of diabetes (i.e. three consecutive blood glucose measurements of >200 mg/dL), mouse groups were further sub-divided into 2 sub-groups, one of each received insulin (gradual administration of 0.5-6 units/Kg, over a period of 2 weeks) subcutaneously, every other day. Blood glucose levels were monitored daily.
Glucose tolerance tests were also performed as follows: After two weeks mice were fasted for 12 hours, then injected with D-glucose (1.5 g/Kg, IP) and blood glucose levels were examined at 0, 10, 20, 30, 60, 90 and 120 minutes, in order to evaluate pancreatic function.

[5] = tested on: STZ-induced diabetic ICR mice; assay: Blood glucose over time in STZ mice, short course (2 weeks) AGS treatment with or without insulin; format: in vivo, mouse
Description: as §1, §2

pancreatic β-cells = assay: Insulin immuno-histochemical and immuno-fluorescence staining of pancreas, β-cell mass in STZ-injected rats; format: in vivo, rat; details: FIG. 5A, 5B, 5D
Description: Rats were treated as described in Example 1, pancreata were removed fixed in 4% formalin, and embedded in paraffin for immuno-histochemical and immuno-fluorescence staining using a specific anti-insulin antibody and serial histopathologic sections were prepared. […] Brown staining in FIG. 5A indicates insulin staining positivity by immunohistochemistry, and red staining (FIGS. 5B and 5C) indicates insulin staining positivity by immunofluorescence, blue cellular staining was effected with Dapi). The Cell density and density of insulin staining per area was measured using “Image J” software (FIGS. 5D and 5E). The results are presented as mean±S.E.; n=4. ***p<0.005.

[6] = tested on: STZ-induced diabetic Wistar rats; assay: Blood glucose in STZ-induced diabetic rats treated with AGS-500; format: in vivo, rat
Description: The effect of compounds of the present invention on diabetes per se, and disease complications arising as a result of diabetes was evaluated. Streptozotocin treatment of mice and rats are known in vivo diabetes models. Intraperitoneal injections of reduced STZ concentrations (35 mg/kg) was evaluated in mice and rats, in order to determine whether in a model causing only partial damage to pancreatic islet β-cells, whether the compounds of this invention would be helpful. Eight-week-old Wistar female rats received two doses of STZ administered intraperitoneally (60 or 35 mg/kg in 0.1M Citrate buffer; at 5-day intervals), which induced diabetes in all animal, since not all rats that received a single injection of STZ became diabetic in this model. These animals were then treated every 3 days with a subcutaneous injection of compound AGS-500 (6 mg/kg) for from 2-5 weeks to generate a Type I Diabetes phenotype. Blood glucose levels were monitored every 3 days in the rats. Ten weeks after the beginning of this study, each mice group was divided into 2 sub-groups, one of each also received insulin (4 U\Kg) every 2 days, except for the non-diabetic sub-groups. Acetic acid (1%) served as the vehicle control. Diabetes was diagnosed when non-fasting blood glucose levels were above 200 mg/dl. Extension of these studies included treatment of rats divided into 4 groups, as follows: 3 groups received 2 injections of STZ (35 mg/kg) at day 0′ and day 15′, serving as the diabetic group, while the non-diabetic group received 2 injections of Citrate buffer in accordance with the stated schedule. One diabetic group was administered AGS-500 intraperitoneally (6 mg/kg) every 12 hours (12 h) starting at day 4′, the second diabetic group received DMSO every 12 h starting at day 4′, and a third diabetic group was not injected with either AGS-500 or DMSO.

[7] = STZ rats, AGS-500 6 mg/kg s.c. every 3 days

## CC(c1cc(Br)c(O)c(Br)c1)(c1cc(Br)c(O)c(Br)c1)c1cc(Br)c(O)c(Br)c1 [AGS-500, 1,1,1-tris (4-hydroxy-3,5-dibromo-phenyl)-ethane]
[1]; daily
  Improvement (fold): 1.5 fold
  Fold of Improvement: 3 fold
  Time needed for the Pancreas to cope glucose load after 5 months: 30 min
  Time needed for the Pancreas to cope with glucose load after 2 months: 60 min
[1]; every 48 hrs
  Improvement (fold): 3 fold
  Fold of Improvement: normal
  Time needed for the Pancreas to cope glucose load after 5 months: 20 min
  Time needed for the Pancreas to cope with glucose load after 2 months: 30 min
[1]; treatment every 48 hours, FIG. 4
  GTT test performed after 5 months: significant improvement in the GTT test
[2]
  number of γ-H2AX-stained cells: dose-dependent decrease in the number of γ-H2AX-stained cells; also recorded: Reduced γ-H2AX Staining
[3]; immunofluorescence, FIG. 5C
  β-cell Mass in STZ-injected mice: preserved β-cell Mass
[3]; no insulin, daily
  No of insulin expressing beta islets/mouse: 5.6
  increase in Insulin expressing Beta islets: 215%
[3]; no insulin, every 48 hrs
  No of insulin expressing beta islets/mouse: 5
  increase in Insulin expressing Beta islets: 192%
[3]; with insulin, AGS daily
  No of insulin expressing beta islets/mouse: 2.5
[3]; with insulin, AGS every 48 hrs
  No of insulin expressing beta islets/mouse: 3
  increase in Insulin expressing Beta islets: 115%
[4]; 6 mg/Kg subcutaneously or orally every other day, FIG. 11
  mean blood glucose levels in a glucose tolerance test: reduced mean blood glucose levels
[4]; AGS subcutaneously (AGS500 also orally), FIG. 12
  effect of adding insulin on circulating glucose levels in a glucose tolerance test: adding insulin did not appreciably lower the circulating levels
[5]; 6 mg/Kg every other day, short course (2 weeks), FIG. 13-1
  circulating glucose levels over time: lowering circulating glucose levels significantly
[5]; short course, insulin 0.5-6 units/Kg, FIG. 13-2
  circulating glucose levels over time, combined with insulin therapy: synergistic contribution
Pancreatic β-cells
  β-cell mass in the pancreas of STZ-injected rats: significantly larger β-cell mass; also recorded: preserved β-cell Mass
[6]; [7]
  Blood glucose levels: 275 ± 18 mg/dL
  effect on the rat hyperglycemic state: no effect
[6]; rats, STZ 35 mg/kg day 0 and 15, AGS-500 6 mg/kg i.p. every 12 h from day 4, FIG. 1A
  blood glucose levels of non-fasting animals: No reduction
[6]; rats, STZ 35 mg/kg day 0 and 15, AGS-500 6 mg/kg i.p. every 12 h from day 4, FIG. 1B
  fasting glucose levels (following 12 h fast): significant reduction of blood glucose levels to normal; also recorded: Reduction in Blood Glucose Level
